Measured values as given in US20240368122A1, “JAK2 INHIBITORS AND METHODS OF USE THEREOF” (RELAY THERAPEUTICS, INC., priority 2021, published 2024).
pIC50, pKd: −log10 of the molar value.

What was measured:
[1] = biological target: T1, JAK2 JH2 WT (V536-D812) [W659A, W777A, F794H solubilizing mutations] (Homo sapiens, UniProt O60674, F794H/W659A/W777A); test: Surface Plasmon Resonance (SPR) binding assay, JAK2 JH2 domain; details: SPR, JAK2 JH2 domain
T1 construct: **JAK2 JH2 WT (V536-D812) [W659A, W777A, F794H solubilizing mutations]; C-thrombin-avi-His6; thrombin cleavage site (C); His6 (C); purchased Biortus
T1 sequence (O60674 536-812 W659A/W777A/F794H): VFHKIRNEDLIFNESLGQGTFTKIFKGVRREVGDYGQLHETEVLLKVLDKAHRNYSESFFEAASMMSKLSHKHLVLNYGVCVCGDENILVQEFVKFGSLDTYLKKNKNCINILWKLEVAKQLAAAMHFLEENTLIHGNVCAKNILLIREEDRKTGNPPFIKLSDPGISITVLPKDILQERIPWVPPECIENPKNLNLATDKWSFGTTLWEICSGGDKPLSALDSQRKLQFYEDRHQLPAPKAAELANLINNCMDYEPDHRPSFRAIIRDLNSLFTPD
Method in brief: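 Kinetics came from 1:1 fits of single-cycle runs at 20 °C: four 3-fold dilutions from 5 uM for JH1 or 500 nM for JH2, 60 s association, and 300 s or 1200 s dissociation respectively. Protein was freshly captured per compound in the presence of 10 uM stabilizer compound, with running buffer of pH 7.5 HEPES/NaCl/glycerol/DTT plus 2% DMSO.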

[2] = test system: TF1 JAK2 V617F STAT3 reporter; test: Cellular TF1 STAT3 assay (luciferase reporter), JAK2 V617F; assay type: cell-based; details: TF1 JAK2 V617F, read-out: Cell PD-TF1 JAK2 V617F STAT3 (IC50)
Method in brief: (§1)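 Inhibition of JAK2 V617F-mediated STAT3/STAT5 signalling is measured by reporter luminescence in TF1 erythroleukemia cells treated overnight (18-20 h) with a 10-point compound series; DMSO serves as vehicle.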

[3] = test system: TF1 JAK2 V617F STAT5 reporter; test: Cellular TF1 STAT5 assay (luciferase reporter), JAK2 V617F; assay type: cell-based; details: TF1 JAK2 V617F, read-out: Cell PD TF1 V617F STAT5 (IC50)
Method in brief: as §1

Row | SMILES | pKd [1] | pIC50 [2] | pIC50 [3]
1 | CNC(=O)c1nnc(NC(=O)C2CC2)cc1Nc1cccc(-c2cnn(C3CN(Cc4cccnn4)C3)c2)c1OC [Compound 109] | 8.00 to 11.00 | 6.30 to 7.30 | 6.30 to 7.30
2 | CNC(=O)c1nnc(NC(=O)C2CC2)cc1Nc1cccc(-c2cnn(C3CN(Cc4cnccn4)C3)c2)c1OC [Compound 110] | 8.00 to 11.00 | 6.30 to 7.30 | 5.30 to 6.30
3 | CNC(=O)c1nnc(NC(=O)C2CC2)cc1Nc1cccc(-c2cnn(C3CN(Cc4cc(C)ccn4)C3)c2)c1OC [Compound 111] | 8.00 to 11.00 | 6.30 to 7.30 | 6.30 to 7.30
4 | CNC(=O)c1nnc(NC(=O)C2CC2)cc1Nc1cc(F)cc(-c2ccc(C(=O)N(C)Cc3cc(C#N)ccn3)nc2)c1OC [Compound 112] | 8.00 to 11.00 | 6.30 to 7.30 | 6.30 to 7.30
5 | CNC(=O)c1nnc(NC(=O)C2CC2)cc1Nc1cccc(-c2ccc(C(=O)N(C)Cc3ccc(F)cc3)nc2)c1OC [Compound 113] | 7.30 to 8.00 | 5.30 to 6.30 | 5.30 to 6.30
6 | CNC(=O)c1nnc(NC(=O)C2CC2)cc1Nc1cccc(-c2ccc(C(=O)N(C)CC(F)F)nc2)c1OC [Compound 114] | 7.30 to 8.00 | 4.00 to 5.30 | 4.00 to 5.30
7 | CNC(=O)c1nnc(NC(=O)C2CC2)cc1Nc1cccc(-c2ccc(C(=O)N(C)Cc3cc(C#N)ccn3)c(C#N)c2)c1OC [Compound 118] | 8.00 to 11.00 | 5.30 to 6.30 | 5.30 to 6.30
8 | CNC(=O)c1nnc(NC(=O)C2CC2)cc1Nc1cccc(-c2ccc(C(=O)N3CCc4cnn(C)c4C3)nc2)c1OC [Compound 120] | 8.00 to 11.00 | 4.00 to 5.30 | 4.00 to 5.30
9 | CNC(=O)c1nnc(NC(=O)C2CC2)cc1Nc1cccc(-c2cnn(C3CN(CC4(C#N)CC4)C3)c2)c1OC [Compound 121] | 8.00 to 11.00 | 5.30 to 6.30 | 4.00 to 5.30
10 | CNC(=O)c1nnc(NC(=O)C2CC2)cc1Nc1cccc(-c2cnn(C3CN(Cc4nccs4)C3)c2)c1OC [Compound 122] | 8.00 to 11.00 | 6.30 to 7.30 | 6.30 to 7.30
11 | CNC(=O)c1nnc(NC(=O)C2CC2)cc1Nc1cccc(-c2cnn(C3CN(Cc4ncc(C)s4)C3)c2)c1OC [Compound 123] | 8.00 to 11.00 | 5.30 to 6.30 | 5.30 to 6.30
12 | CNC(=O)c1nnc(NC(=O)C2CC2)cc1Nc1cccc(-c2cnn(C3CN(Cc4cscn4)C3)c2)c1OC [Compound 124] | 8.00 to 11.00 | 6.30 to 7.30 | 6.30 to 7.30
13 | CNC(=O)c1nnc(NC(=O)C2CC2)cc1Nc1cccc(-c2cnn(C3CN(Cc4ncsc4C)C3)c2)c1OC [Compound 125] | 8.00 to 11.00 | 5.30 to 6.30 | 5.30 to 6.30
14 | CNC(=O)c1nnc(NC(=O)C2CC2)cc1Nc1cccc(-c2cnn(C3CN(Cc4csc(C)n4)C3)c2)c1OC [Compound 126] | 8.00 to 11.00 | 6.30 to 7.30 | 6.30 to 7.30
15 | CNC(=O)c1nnc(NC(=O)C2CC2)cc1Nc1cccc(-c2cnn(C3CN(Cc4cc(F)ccc4F)C3)c2)c1OC [Compound 128] | 8.00 to 11.00 | 5.30 to 6.30 | 5.30 to 6.30
16 | CNC(=O)c1nnc(NC(=O)C2CC2)cc1Nc1cccc(-c2cnn(C3CN(Cc4cccc(F)c4F)C3)c2)c1OC [Compound 129] | 7.30 to 8.00 | 5.30 to 6.30 | 5.30 to 6.30
17 | CNC(=O)c1nnc(NC(=O)C2CC2)cc1Nc1cccc(-c2cnn(C3CN(Cc4ccccc4)C3)c2)c1OC [Compound 130] | 8.00 to 11.00 | 5.30 to 6.30 | 5.30 to 6.30
18 | CNC(=O)c1nnc(NC(=O)C2CC2)cc1Nc1cccc(-c2ccc(C(=O)N(C)Cc3cc(C#N)ccn3)c(F)c2)c1OC [Compound 131] | 8.00 to 11.00 | 5.30 to 6.30 | 5.30 to 6.30
19 | CNC(=O)c1nnc(NC(=O)C2CC2)cc1Nc1cccc(-c2ccc(C(=O)N(C)Cc3ccn(C)n3)c(F)c2)c1OC [Compound 132] | 8.00 to 11.00 | 5.30 to 6.30 | 5.30 to 6.30
20 | CNC(=O)c1nnc(NC(=O)C2CC2)cc1Nc1cccc(-c2ccc(C(=O)N(C)Cc3ccc(C)cn3)nc2)c1OC [Compound 134] | 8.00 to 11.00 | 6.30 to 7.30 | 5.30 to 6.30
21 | CNC(=O)c1nnc(NC(=O)C2CC2)cc1Nc1cccc(-c2ccc(C(=O)N(C)Cc3cc(C#N)ccn3)nc2C2CC2)c1OC [Compound 137] | 7.30 to 8.00 | 4.00 to 5.30 | 4.00 to 5.30
22 | CNC(=O)c1nnc(NC(=O)C2CC2)cc1Nc1cccc(-c2cnn(C3CN(Cc4nnc(C)s4)C3)c2)c1OC [Compound 144] | 8.00 to 11.00 | 5.30 to 6.30 | 5.30 to 6.30

Row | SMILES | pKd [1] | pIC50 [2] | pIC50 [3]
23 | CNC(=O)c1nnc(NC(=O)C2CC2)cc1Nc1cccc(-c2cnc(C(=O)N(C)Cc3cc(C#N)ccn3)cc2C2CC2)c1OC [Compound 153] | 8.00 to 11.00 | 6.30 to 7.30 | 6.30 to 7.30
24 | CNC(=O)c1nnc(NC(=O)C2CC2)cc1Nc1cccc(-c2ccc(C(=O)N(C)Cc3nccc(C#N)c3F)nc2)c1OC [Compound 154] | 8.00 to 11.00 | 4.00 to 5.30 | 4.00 to 5.30
25 | CNC(=O)c1nnc(NC(=O)C2CC2)cc1Nc1ccc(C)c(-c2ccc(C(=O)N(C)Cc3cn(C)nc3C)nc2)c1OC [Compound 164] | 8.00 to 11.00 | 6.30 to 7.30 | 6.30 to 7.30
26 | CNC(=O)c1nnc(NC(=O)C2CC2)cc1Nc1cccc(-c2cn(C3CN(Cc4ccccn4)C3)nc2C(F)F)c1OC [Compound 165] | 8.00 to 11.00 | 5.30 to 6.30 | 5.30 to 6.30
27 | CNC(=O)c1nnc(NC(=O)C2CC2)cc1Nc1cccc(-c2ccc(C(=O)N(C)Cc3cnn(C)c3C)nc2)c1OC [Compound 166] | 8.00 to 11.00 | 5.30 to 6.30 | 5.30 to 6.30
28 | CNC(=O)c1nnc(NC(=O)C2CC2)cc1Nc1cccc(-c2ccc(C(=O)N(C)Cc3cccc(C)n3)nc2)c1OC [Compound 167] | 8.00 to 11.00 | 6.30 to 7.30 | 6.30 to 7.30
29 | CNC(=O)c1nnc(NC(=O)C2CC2)cc1Nc1cccc(-c2ccc(C(=O)N(C)Cc3c(C)nn(C)c3C)nc2)c1OC [Compound 168] | 8.00 to 11.00 | 6.30 to 7.30 | 6.30 to 7.30
30 | CNC(=O)c1nnc(NC(=O)C2CC2)cc1Nc1cccc(-c2cnn(C3CN(Cc4cccnc4Cl)C3)c2)c1OC [Compound 169] | 8.00 to 11.00 | 6.30 to 7.30 | 6.30 to 7.30
31 | CNC(=O)c1nnc(NC(=O)C2CC2)cc1Nc1cccc(-c2ccc(C(=O)N(C)Cc3cc(C#N)ccn3)c(C(F)(F)F)c2)c1OC [Compound 170] | 8.00 to 11.00 | 5.30 to 6.30 | 5.30 to 6.30
32 | CNC(=O)c1nnc(NC(=O)C2CC2)cc1Nc1cccc(-c2ccc(C(=O)N(C)Cc3ccn(C)n3)c(C(F)(F)F)c2)c1OC [Compound 171] | 8.00 to 11.00 | 5.30 to 6.30 | 5.30 to 6.30
33 | CNC(=O)c1nnc(NC(=O)C2CC2)cc1Nc1cccc(-c2cnc(C(=O)N(C)Cc3cn(C)nc3C)c(F)c2)c1OC [Compound 172] | 8.00 to 11.00 | 6.30 to 7.30 | 6.30 to 7.30
34 | CNC(=O)c1nnc(NC(=O)C2CC2)cc1Nc1cccc(-c2cnn(C3CN(Cc4csnn4)C3)c2)c1OC [Compound 173] | 8.00 to 11.00 | 6.30 to 7.30 | 6.30 to 7.30
35 | CNC(=O)c1nnc(NC(=O)C2CC2)cc1Nc1cccc(-c2ccc(C(=O)N(C)Cc3csc(C)n3)nc2)c1OC [Compound 174] | 8.00 to 11.00 | 6.30 to 7.30 | 6.30 to 7.30
36 | CNC(=O)c1nnc(NC(=O)C2CC2)cc1Nc1cccc(-c2cc(C3CN(Cc4cnn(C)c4)C3)nn2C)c1OC [Compound 175] | 8.00 to 11.00 | 4.00 to 5.30 | 4.00 to 5.30
37 | CNC(=O)c1cnc(NC(=O)C2CC2)cc1Nc1cccc(-c2ccc(C(=O)N(C)Cc3cc(C#N)ccn3)nc2)c1OC [Compound 176] | 8.00 to 11.00 | 5.30 to 6.30 | 6.30 to 7.30
38 | CNC(=O)c1nnc(NC(=O)C2CC2)cc1Nc1cccc(-c2cc(C3CN(Cc4cc(C#N)ccn4)C3)nn2C)c1OC [Compound 177] | 8.00 to 11.00 | 4.00 to 5.30 | 4.00 to 5.30
39 | CNC(=O)c1nnc(NC(=O)C2CC2)cc1Nc1cccc(-c2ccc(C(=O)N(C)Cc3ncc(C#N)s3)nc2)c1OC [Compound 178] | 8.00 to 11.00 | 4.00 to 5.30 | 4.00 to 5.30
40 | CNC(=O)c1nnc(NC(=O)C2CC2)cc1Nc1cccc(-c2ccc(C(=O)N(C)Cc3cccc(OC(F)F)n3)nc2)c1OC [Compound 179] | 8.00 to 11.00 | 5.30 to 6.30 | 5.30 to 6.30
41 | CNC(=O)c1nnc(NC(=O)C2CC2)cc1Nc1ccc(C)c(-c2ccc(C(=O)N(C)Cc3nccs3)nc2)c1OC [Compound 180] | 8.00 to 11.00 | 5.30 to 6.30 | 5.30 to 6.30
42 | CNC(=O)c1nnc(NC(=O)C2CC2)cc1Nc1cccc(-c2ccc(C3CN(Cc4ccccn4)C3)nc2)c1OC [Compound 182] | 8.00 to 11.00 | 4.00 to 5.30 | 5.30 to 6.30
43 | CNC(=O)c1nnc(NC(=O)C2CC2)cc1Nc1cccc(-c2cn(C3CN(Cc4cccc(C#N)n4)C3)nn2)c1OC [Compound 183] | 8.00 to 11.00 | 5.30 to 6.30 | 6.30 to 7.30
44 | CNC(=O)c1nnc(NC(=O)C2CC2)cc1Nc1cccc(-c2cn(C3CN(Cc4ccccn4)C3)nc2C)c1OC [Compound 184] | 8.00 to 11.00 | 5.30 to 6.30 | 5.30 to 6.30
